Test results reported in the NIST ThermoML archive (doi:10.1021/acs.jced.7b00782).
± gives the expanded uncertainty stated by the source.

Details: Closed cell (Static) method

SMILES | vapor or sublimation pressure (135.8 K, Liquid) | vapor or sublimation pressure (146.22 K, Liquid) | vapor or sublimation pressure (105.89 K, Liquid) | vapor or sublimation pressure (127.32 K, Liquid) | vapor or sublimation pressure (105.89 K, Crystal)
[Ar] [argon] | 2605.6 ± 58 kPa | 4028.9 ± 58 kPa | – | – | –
[C-]#[O+] [carbon monoxide] | – | – | 830 ± 40 kPa | 2682 ± 40 kPa | –
[N]=O [nitrogen oxide (NO)] | 410.9 ± 26 kPa | 987.8 ± 30 kPa | – | 188.3 ± 23 kPa | 13.6 ± 20 kPa
